Test [1] has as its target T1, TBK1 (Homo sapiens, UniProt Q9UHD2).
T1 construct: purchased Promega V3991
T1 sequence (Q9UHD2 1-729): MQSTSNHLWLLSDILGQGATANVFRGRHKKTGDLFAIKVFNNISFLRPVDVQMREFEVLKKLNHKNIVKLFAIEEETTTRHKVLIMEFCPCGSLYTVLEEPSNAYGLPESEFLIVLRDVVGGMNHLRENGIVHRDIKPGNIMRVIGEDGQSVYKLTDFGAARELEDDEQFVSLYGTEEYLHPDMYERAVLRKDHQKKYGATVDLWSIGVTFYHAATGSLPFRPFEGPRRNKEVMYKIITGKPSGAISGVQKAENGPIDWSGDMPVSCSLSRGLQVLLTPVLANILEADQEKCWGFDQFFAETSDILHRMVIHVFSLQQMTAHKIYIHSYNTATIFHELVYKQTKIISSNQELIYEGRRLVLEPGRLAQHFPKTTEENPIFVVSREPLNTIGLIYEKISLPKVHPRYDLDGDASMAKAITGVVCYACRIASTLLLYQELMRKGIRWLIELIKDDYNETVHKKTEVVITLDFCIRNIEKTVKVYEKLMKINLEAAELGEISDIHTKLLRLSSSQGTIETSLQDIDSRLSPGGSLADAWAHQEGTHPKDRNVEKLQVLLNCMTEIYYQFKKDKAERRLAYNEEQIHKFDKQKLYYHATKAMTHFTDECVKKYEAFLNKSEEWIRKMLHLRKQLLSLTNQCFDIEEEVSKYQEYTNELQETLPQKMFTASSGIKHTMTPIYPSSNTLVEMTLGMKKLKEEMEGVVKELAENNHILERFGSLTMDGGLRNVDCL
In words: TBK1 inhibition, ADP-Glo Kinase Assay. The class given is biochemical. Particulars: luminometer. In short, it runs like this: (§1)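 Each recombinant kinase enzyme system was run per the manufacturer's protocol in 40 mM Tris pH 7.5, 20 mM MgCl2 and 0.1 mg/mL BSA. Kinase activity was detected as ADP formation by ADP-Glo luminescence.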
(ADP-Glo turns the ADP formed in a reaction into a luminescent signal.)

Test [2] addresses T2, IKKε (Homo sapiens, UniProt Q14164).
T2 construct: purchased Invitrogen PR8031B
T2 sequence (Q14164 1-716): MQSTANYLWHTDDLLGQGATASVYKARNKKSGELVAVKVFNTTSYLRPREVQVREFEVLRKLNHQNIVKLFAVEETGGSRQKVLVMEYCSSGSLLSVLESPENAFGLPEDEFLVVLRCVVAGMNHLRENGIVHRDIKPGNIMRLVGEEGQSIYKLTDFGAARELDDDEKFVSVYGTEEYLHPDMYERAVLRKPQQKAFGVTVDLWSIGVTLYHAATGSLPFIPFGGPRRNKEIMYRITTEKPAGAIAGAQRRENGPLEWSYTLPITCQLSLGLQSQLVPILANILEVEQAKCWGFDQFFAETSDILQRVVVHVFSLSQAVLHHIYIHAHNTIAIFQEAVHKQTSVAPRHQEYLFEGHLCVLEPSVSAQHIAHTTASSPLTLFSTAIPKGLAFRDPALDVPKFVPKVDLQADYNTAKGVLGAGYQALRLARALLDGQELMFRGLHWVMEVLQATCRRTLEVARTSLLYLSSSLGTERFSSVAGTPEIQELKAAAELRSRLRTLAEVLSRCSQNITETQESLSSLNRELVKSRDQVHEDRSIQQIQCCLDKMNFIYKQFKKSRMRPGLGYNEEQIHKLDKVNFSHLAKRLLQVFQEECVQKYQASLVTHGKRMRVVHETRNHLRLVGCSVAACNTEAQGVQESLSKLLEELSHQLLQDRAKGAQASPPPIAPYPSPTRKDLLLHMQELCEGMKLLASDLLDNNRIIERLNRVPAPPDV
In words: IKKε inhibition, ADP-Glo Kinase Assay. The class given is biochemical. The following applies: luminometer. In short, it runs like this: as §1

A word on the IC50: it is the concentration needed to halve the response being measured. The low end stands for greater potency in that assay, the high end for weaker potency in that assay.

The structures appear in SMILES notation.

For `CN1CCN(c2ccc(C(=O)Nc3n[nH]c4ccc(C(=O)NC(c5ccccn5)C5CC5)cc34)cc2)CC1` (stereo not shown) [Example 140, N-(Cyclopropyl(pyridin-2-yl)methyl)-3-(4-(4-methylpiperazin-1-yl)benzamido)-1H-indazole-5-carboxamide], the IC50 in test [1] was 0.084 µM; in test [2], 0.27 µM.
For `CN1CCN(c2ccc(C(=O)Nc3n[nH]c4ccc(C(=O)NCc5nccs5)cc34)cc2)CC1` [Example 103, 3-(4-(4-Methylpiperazin-1-yl)benzamido)-N-(thiazol-2-ylmethyl)-1H-indazole-5-carboxamide 2,2,2-trifluoroacetate], in that order: 0.02 µM and 0.44 µM.
As to `Cc1ccc(CNC(=O)c2ccc3[nH]nc(NC(=O)c4ccc(N5CCN(C)CC5)cc4)c3c2)s1` [Example 61, 3-(4-(4-Methylpiperazin-1-yl)benzamido)-N-((5-methylthiophen-2-yl)methyl)-1H-indazole-5-carboxamide], the figures for the IC50 in test [1] and in test [2] were 0.056 µM and 0.23 µM, respectively.
For `CN1CCN(c2ccc(C(=O)Nc3n[nH]c4ccc(C(=O)NCc5ccsc5)cc34)cc2)CC1` [Example 47, 3-(4-(4-Methylpiperazin-1-yl)benzamido)-N-(thiophen-3-ylmethyl)-1H-indazole-5-carboxamide], the IC50 was 0.0014 µM in test [1] and 0.014 µM in test [2].
For `O=C(NCc1ccccn1)c1ccc2[nH]nc(NC(=O)c3ccc(F)cc3)c2c1` [Example 28, 3-(4-Fluorobenzamido)-N-(pyridin-2-ylmethyl)-1H-indazole-5-carboxamide2,2,2-trifluoroacetate], the values for the half-inhibitory concentration (IC50) in test [1] and in test [2] were 0.73 µM and 2.62 µM, respectively.
As to `CCC(NC(=O)c1ccc2[nH]nc(NC(=O)c3ccc(N4CCN(CC)CC4)cc3)c2c1)c1cccs1` (stereo not shown) [Example 109, 3-(4-(4-Ethylpiperazin-1-yl)benzamido)-N-(1-(thiophen-2-yl)propyl)-1H-indazole-5-carboxamide], the IC50 worked out at 0.0036 µM in test [1] and 0.025 µM in test [2].
Take `CN1CCN(c2ccc(C(=O)Nc3n[nH]c4ccc(NC(=O)Cc5cccs5)cc34)cc2)CC1` [Example 141, 4-(4-Methylpiperazin-1-yl)-N-(5-(2-(thiophen-2-yl)acetamido)-1H-indazol-3-yl)benzamide]: the values for the IC50 in test [1] and in test [2] were 0.024 µM and 0.38 µM, respectively.
Consider `CC(C)(NC(=O)c1ccc2[nH]nc(NC(=O)c3ccc(N4CCOCC4)cc3)c2c1)c1ccccc1` [Example 62, 3-(4-Morpholinobenzamido)-N-(2-phenylpropan-2-yl)-1H-indazole-5-carboxamide], for which the figures for the IC50 in test [1] and in test [2] were 0.011 µM and 0.032 µM, respectively.
On to `CN1CCN(c2ccc(C(=O)Nc3n[nH]c4ccc(C(=O)NCC5CCC5)cc34)cc2)CC1` [Example 106, N-(Cyclobutylmethyl)-3-(4-(4-methylpiperazin-1-yl)benzamido)-1H-indazole-5-carboxamide], for which the IC50 in test [1] was 0.023 µM; in test [2], 0.15 µM.
For the compound `CC1CN(c2ccc(C(=O)Nc3n[nH]c4ccc(C(=O)NCc5cccs5)cc34)cc2)CC(C)N1` (stereo not shown) [Example 89, 3-(4-(3,5-Dimethylpiperazin-1-yl)benzamido)-N-(thiophen-2-ylmethyl)-1H-indazole-5-carboxamide 2,2,2-trifluoroacetate], the IC50 in test [1] stood at 0.0056 µM; in test [2], 0.079 µM.
In the case of `O=C(Nc1n[nH]c2ccc(C(=O)NC(c3cccnc3)C3CC3)cc12)c1ccc(N2CCOCC2)cc1` (stereo not shown) [Example 142, N-(Cyclopropyl(pyridin-3-yl)methyl)-3-(4-morpholinobenzamido)-1H-indazole-5-carboxamide], the IC50 in test [1] is 0.067 µM; in test [2] it was 0.096 µM.
As to `CCC(NC(=O)c1ccc2[nH]nc(NC(=O)c3ccc(N4CCNCC4)cc3)c2c1)c1ccccc1` (stereo not shown) [Example 41, N-(1-Phenylpropyl)-3-(4-(piperazin-1-yl)benzamido)-1H-indazole-5-carboxamide], the IC50 in test [1] turned out to be 0.0039 µM; in test [2], 0.047 µM.
For `CC(NC(=O)c1ccc2[nH]nc(NC(=O)c3ccc(N4CCOCC4)cc3)c2c1)c1ccncc1` (stereo not shown) [Example 132, 3-(4-Morpholinobenzamido)-N-(1-(pyridin-4-yl)ethyl)-1H-indazole-5-carboxamide], the half-maximal inhibitory concentration (IC50) is 0.023 µM in test [1] and 0.043 µM in test [2].
In the case of `CC1CN(c2ccc(C(=O)Nc3n[nH]c4ccc(C(=O)NC(C)c5ccccc5)cc34)cc2)CC(C)O1` (stereo not shown) [Example 183, 3-(4-(2,6-Dimethylmorpholino)benzamido)-N-(1-phenylethyl)-1H-indazole-5-carboxamide], the IC50 was 0.0043 µM in test [1] and 0.018 µM in test [2].
With `CC(C)(NC(=O)c1ccc2[nH]nc(NC(=O)c3ccc(N4CCOCC4)cc3)c2c1)c1cccs1` [Example 134, 3-(4-Morpholinobenzamido)-N-(2-(thiophen-2-yl)propan-2-yl)-1H-indazole-5-carboxamide], the IC50 stood at 0.012 µM in test [1] and 0.033 µM in test [2].
For the compound `CC(C)(C)OC(=O)N1CC=C(c2ccc(C(=O)Nc3n[nH]c4ccc(C(=O)NCc5cccs5)cc34)cc2)CC1` [Example 198, tert-Butyl 4-(4-((5-((thiophen-2-ylmethyl)carbamoyl)-1H-indazol-3-yl)carbamoyl)phenyl)-3,6-tetrahydropyridine-1(2H)-carboxylate], the IC50 in test [1] is 0.15 µM; in test [2] it was 1.28 µM.
Turning to `Cc1cc(C(=O)Nc2n[nH]c3ccc(C(=O)NCc4cccs4)cc23)ccc1N1CCOCC1` [Example 78, 3-(3-Methyl-4-morpholinobenzamido)-N-(thiophen-2-ylmethyl)-1H-indazole-5-carboxamide], the IC50 stood at 0.037 µM in test [1] and 0.2 µM in test [2].
For `CC(C)CCNC(=O)c1ccc2[nH]nc(NC(=O)c3ccc(N4CCN(C)CC4)cc3)c2c1` [Example 114, N-Isopentyl-3-(4-(4-methylpiperazin-1-yl)benzamido)-1H-indazole-5-carboxamide 2,2,2-trifluoroacetate], in that order: 0.082 µM and 0.41 µM.
In the same order, the values of `CN1CCN(c2ccc(C(=O)Nc3n[nH]c4ccc(C(=O)NCc5ccc(Cl)s5)cc34)cc2)CC1` [Example 146, N-((5-chlorothiophen-2-yl)methyl)-3-(4-(4-methylpiperazin-1-yl)benzamido)-1H-indazole-5-carboxamide] are 0.019 µM and 0.065 µM.
In the same order, the values of `CC[C@H](NC(=O)c1ccc2[nH]nc(NC(=O)c3ccc(N4CCN(C)CC4)cc3)c2c1)c1cccs1` [Example 111, (S)-3-(4-(4-Methylpiperazin-1-yl)benzamido)-N-(1-(thiophen-2-yl)propyl)-1H-indazole-5-carboxamide] are 0.014 µM and 0.074 µM.
With `O=C(NCC1CCCCC1)c1ccc2[nH]nc(NC(=O)c3ccc(N4CCOCC4)cc3)c2c1` [Example 88, N-(Cyclohexylmethyl)-3-(4-morpholinobenzamido)-1H-indazole-5-carboxamide], the IC50 worked out at 0.02 µM in test [1] and 0.11 µM in test [2].
Consider `CN1CCN(c2ccc(C(=O)Nc3n[nH]c4ccc(C(=O)NC(c5cccnc5)C5CC5)cc34)cc2)CC1` (stereo not shown) [Example 143, N-(Cyclopropyl(pyridin-3-yl)methyl)-3-(4-(4-methylpiperazin-1-yl)benzamido)-1H-indazole-5-carboxamide], for which the IC50 in test [1] worked out at 0.071 µM; in test [2] it was 0.12 µM.
Take `CN1CCN(c2ccc(C(=O)Nc3n[nH]c4ccc(C(=O)NCc5ccccc5F)cc34)cc2)CC1` [Example 196, N-(2-Fluorobenzyl)-3-(4-(4-methylpiperazin-1-yl)benzamido)-1H-indazole-5-carboxamide]: the IC50 in test [1] came out at 0.007 µM; in test [2], 0.032 µM.

The values above are taken from patent US10294207B2, “Pyrazole derivatives as TNIK, IKKϵ and TBK1 inhibitor and pharmaceutical composition comprising same” (GREEN CROSS CORPORATION, priority 2015, dated 2019).
